Measurements from patent US20230292743A1, “Method for increasing the lifespan and motility of animal sperm using an inhibitor of Slo3 potassium channel” (IMV TECHNOLOGIES, priority 2017, published 2023).

Tested on: mouse sperm
Assay: Ability of mouse sperm to fertilize oocytes after incubation in capacitation medium (in vitro fertilization, 2-cell embryos)
Type: cell-based
Settings: 25 μM quinidine in M16-BSA medium, 12 hours incubation, vs control
Procedure: Mouse sperm was obtained by manual trituration of caudae epididymides from male and were allowed to swim in M2 medium (from Sigma) for 10 minutes. The M2 medium composition in g/L is as follows: CaCl2 0.25; MgSO4 (anhydrous) 0.1649; KCl 0.35635; K2HPO4 0.162; NaHCO3 0.35; NaCl 5.53193; Albumin, Bovine Fraction V 4.0; D-Glucose 1.0; HEPES (for 4-(2-HydroxyEthyl)-1-Piperazine EthaneSulfonic acid)×Na 5.42726; Pyruvic Acid×Na 0.0363; DL-Lactic Acid×Na 2.95). Sperm were then capacitated in M16 medium (from Sigma) with 2% fatty acid-free BSA (for Bovine Serum Albumin) (named “M16-BSA medium”) at 37° C. in a 5% v/v CO2 incubator for different times as specified. M16 medium is a commercial and commonly used medium for in vitro fertilization and culture of preimplantation stage embryos. Oocytes were collected from mature OF1 females, synchronized with 5 units of pregnant mare serum gonadotrophin (PMSG) and 5 units of human chorionic gonadotrophin (HCG). Cumulus were harvested directly from the ampulla and sperm were injected into the M16 droplets containing the cumulus. 1. The first test related to the ability of mouse sperm to fertilize oocytes when incubated prior fertilization in a capacitation medium containing clofilium with regard to a control medium, which is the same capacitation medium but without clofilium. The capacitation medium was M16-BSA medium. The control medium was the M16-BSA medium containing the sperm. It was compared to the same medium further including clofilium at a concentration of 5 μM (in the M16-BSA medium containing the sperm). Sperm was incubated in M16-BSA medium with or without clofilium and then added to M16 droplets containing the cumulus comprising the oocytes. Two-cell embryos were counted at 48 h post insemination (n=3). The number of oocytes reaching the two-cell stage were counted at 48 hours after fertilization. Two different concentrations of clofilium were tested: 0.2 μM of clofilium and 5 μM of clofilium (in the M16-BSA medium containing the sperm). The sperm incubation time prior fertilization was 12 hours. The test related to the ability of mouse sperm to fertilize oocytes, sperm being incubated prior fertilization in a medium containing quinidine with regard to a control medium, without quinidine. The control medium was the M16-BSA medium containing the sperm (“control”). It was compared to the same medium further including quinidine, at various concentrations 5 μM quinidine (“5 μM quinidine”), 10 μM quinidine (“10 μM quinidine”), 25 μM quinidine (“25 μM quinidine”) and 100 μM quinidine (“100 μM quinidine”).

How did the “percentage of 2-cell embryos vs mature oocytes at 24 h post fertilization (sperm lifespan)” value turn out when `C=C[C@H]1CN2CC[C@H]1C[C@@H]2[C@@H](O)c1ccnc2ccc(OC)cc12` [quinidine, (9S)-6′-methoxycinchonan-9-ol] was run?
The value was “better lifespan than the non-treated”.
